Experimental data: patent publication US20230265151A1, “GIP/GLP1 CO-AGONIST COMPOUNDS” (priority 2020, published 2023)
Where two headings read alike, the source gives them in different places. *1 amine or outer side, *2 acyl side, *3 side chain or, on linkers, in order; H or OH if unused. Where a SMILES comes first, the peptide text is derived from it. Side-chain parts run from the residue outwards. [ ]: non-standard residue; d: D form. The star is where a group is joined. αMePhe(2-F) = C[C@](N)(Cc1ccccc1F)C(=O)O; γGlu = O=C(O)[C@H](CCC(=O)[*:2])N[*:1]; C14 diacid = O=C(O)CCCCCCCCCCCCC(=O)*; αMeY = C[C@](N)(Cc1ccc(O)cc1)C(=O)O; αMeL = CC(C)C[C@](C)(N)C(=O)O; Orn = NCCC[C@H](N)C(=O)O; AEEA = NCCOCCOCC(=O)O; Aib = CC(C)(N)C(=O)O

Tests used:
Format in all cases: cell-based
hGIPR = target: T1, hGIPR (Homo sapiens, UniProt P48546); assay: Functional cAMP formation (HTRF) in HEK-293 clonal cells expressing hGIPR, 0.1% bovine casein, without or with 1.0% human serum albumin; conditions: for EC50: geometric mean
T1 construct: expressed in transfected cells
T1 sequence (P48546 22-466): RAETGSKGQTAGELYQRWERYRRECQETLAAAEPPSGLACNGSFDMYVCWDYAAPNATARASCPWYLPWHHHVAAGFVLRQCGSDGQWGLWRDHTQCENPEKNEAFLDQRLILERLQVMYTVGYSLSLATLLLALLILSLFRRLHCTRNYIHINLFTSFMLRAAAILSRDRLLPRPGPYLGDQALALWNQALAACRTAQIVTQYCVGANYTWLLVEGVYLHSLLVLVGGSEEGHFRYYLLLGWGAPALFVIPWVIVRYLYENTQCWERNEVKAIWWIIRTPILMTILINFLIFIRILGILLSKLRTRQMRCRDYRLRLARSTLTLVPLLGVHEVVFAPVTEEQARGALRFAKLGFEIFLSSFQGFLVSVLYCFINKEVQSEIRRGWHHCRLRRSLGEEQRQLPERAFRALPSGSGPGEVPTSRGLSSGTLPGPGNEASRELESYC
Outline: (§1)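 Readings of the HTRF 665/620 nm ratio, which falls as cAMP rises, were converted to nM cAMP using a standard curve after 30 min peptide exposure at 37° C.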

hGCGR = target: T2, hGCGR (Homo sapiens, UniProt P47871); assay: Functional cAMP formation (HTRF) in HEK-293 clonal cells expressing hGCGR, 0.1% bovine casein, without or with 1.0% human serum albumin; conditions: geometric mean
T2 construct: expressed in transfected cells
Outline: as §1

hGLP-1R = hGLP-1R (Homo sapiens, UniProt P43220); assay: Functional cAMP formation (HTRF) in HEK-293 clonal cells expressing hGLP-1R, 0.1% bovine casein, without or with 1.0% human serum albumin; set-up: expressed in transfected cells; conditions: for EC50: geometric mean
Outline: as §1

[1] = HEK293, 0.1% bovine casein and 1.0% human serum albumin, 37° C., percent of maximal response to GIP(1-42)NH2, read-out: hGIPR Emax, % ± SEM
[2] = cAMP, incubated at 37° C., 0.1% bovine casein (no human serum albumin), read-out: hGIPR EC50, nM (SEM, n)
[3] = 0.1% bovine casein and 1.0% human serum albumin, 37° C., read-out: hGCGR EC50, nM (SEM, n)
[4] = cAMP, incubated at 37° C., 0.1% bovine casein (no human serum albumin), read-out: hGCGR EC50, nM (SEM, n)
[5] = HEK293, 0.1% bovine casein and 1.0% human serum albumin, 37° C., percent of maximal response to GLP-1(7-36)NH2, read-out: hGLP-1R Emax, % ± SEM
[6] = HEK293, percent of maximal response to GLP-1(7-36)NH2, 37° C., 0.1% bovine casein, arithmetic mean, read-out: hGLP-1R Emax, % ± SEM
[7] = cAMP, incubated at 37° C., 0.1% bovine casein (no human serum albumin), read-out: hGLP-1R EC50, nM (SEM, n)

Sequence of hGLP-1R (P43220 24-463): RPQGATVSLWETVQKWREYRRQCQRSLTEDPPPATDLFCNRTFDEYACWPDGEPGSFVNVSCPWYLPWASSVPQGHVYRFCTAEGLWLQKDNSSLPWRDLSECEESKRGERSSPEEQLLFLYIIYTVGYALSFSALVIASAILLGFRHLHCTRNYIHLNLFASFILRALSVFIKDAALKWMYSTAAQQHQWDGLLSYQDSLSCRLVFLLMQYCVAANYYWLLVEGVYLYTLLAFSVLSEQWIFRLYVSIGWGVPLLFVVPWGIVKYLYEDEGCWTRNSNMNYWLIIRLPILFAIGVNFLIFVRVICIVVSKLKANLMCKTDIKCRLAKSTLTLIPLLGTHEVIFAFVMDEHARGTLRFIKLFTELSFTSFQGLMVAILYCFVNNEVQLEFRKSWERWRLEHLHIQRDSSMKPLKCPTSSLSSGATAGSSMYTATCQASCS
T2 sequence (P47871 26-477): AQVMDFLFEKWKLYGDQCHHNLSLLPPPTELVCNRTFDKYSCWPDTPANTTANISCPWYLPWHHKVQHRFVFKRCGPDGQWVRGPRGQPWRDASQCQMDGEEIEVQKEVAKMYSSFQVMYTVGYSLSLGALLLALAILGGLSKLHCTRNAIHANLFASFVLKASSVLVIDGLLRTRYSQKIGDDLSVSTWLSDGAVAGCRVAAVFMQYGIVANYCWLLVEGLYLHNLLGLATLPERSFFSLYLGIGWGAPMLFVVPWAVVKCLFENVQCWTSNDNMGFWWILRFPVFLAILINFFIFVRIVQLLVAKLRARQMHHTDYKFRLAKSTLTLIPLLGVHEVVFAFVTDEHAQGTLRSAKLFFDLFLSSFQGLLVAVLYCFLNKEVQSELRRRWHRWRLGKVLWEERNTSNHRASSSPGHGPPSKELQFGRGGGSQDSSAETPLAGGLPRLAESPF

CC[C@H](C)[C@H](NC(=O)[C@H](CCCN)NC(=O)[C@H](CC(=O)O)NC(=O)[C@H](CC(C)C)NC(=O)[C@](C)(CC(C)C)NC(=O)[C@@H](NC(=O)C(C)(C)NC(=O)[C@H](Cc1ccc(O)cc1)NC(=O)[C@H](CC(=O)O)NC(=O)[C@H](CO)NC(=O)[C@@H](NC(=O)[C@](C)(Cc1ccccc1F)NC(=O)[C@@H](NC(=O)CNC(=O)[C@H](CCC(=O)O)NC(=O)C(C)(C)NC(=O)[C@@H](N)Cc1ccc(O)cc1)[C@@H](C)O)[C@@H](C)O)[C@@H](C)CC)C(=O)N[C@@H](C)C(=O)N[C@@H](CCC(N)=O)C(=O)NC(C)(C)C(=O)N[C@@H](CCC(=O)O)C(=O)N[C@@H](Cc1ccccc1)C(=O)N[C@H](C(=O)N[C@@H](CCCCNC(=O)COCCOCCNC(=O)COCCOCCNC(=O)CC[C@H](NC(=O)CCCCCCCCCCCCC(=O)O)C(=O)O)C(=O)N[C@@](C)(Cc1ccc(O)cc1)C(=O)N[C@@H](CC(C)C)C(=O)N[C@H](C(=O)N[C@@H](CCCCNC(=O)COCCOCCNC(=O)COCCOCCNC(=O)CC[C@H](NC(=O)CCCCCCCCCCCCC(=O)O)C(=O)O)C(=O)NCC(=O)NCC(=O)N1CCC[C@H]1C(=O)N[C@@H](CO)C(=O)N[C@@H](CO)C(=O)NCC(=O)N[C@@H](C)C(=O)N1CCC[C@H]1C(=O)N1CCC[C@H]1C(=O)N1CCC[C@H]1C(=O)N[C@@H](CO)C(N)=O)[C@@H](C)CC)[C@@H](C)CC [Example 233]
EC50 (hGIPR; 0.1% bovine casein and 1.0% human serum albumin, 37° C., read-out: hGIPR EC50, nM (SEM, n)): 6.08 nM
Emax (hGIPR; [1]): 91.4%
Emax (hGIPR; HEK293, percent of maximal response to GIP(1-42)NH2, 37° C., 0.1% bovine casein, arithmetic mean, read-out: hGIPR Emax, % ± SEM): 105%
EC50 (hGIPR; [2]): 0.0269 nM
EC50 (hGCGR; [3]): > 9950 nM
EC50 (hGCGR; [4]): > 9950 nM
EC50 (hGLP-1R; 0.1% bovine casein and 1.0% human serum albumin, 37° C., read-out: hGLP-1R EC50, nM (SEM, n)): 56.7 nM
Emax (hGLP-1R; [5]): 116%
Emax (hGLP-1R; [6]): 111%
EC50 (hGLP-1R; [7]): 0.604 nM

CC[C@H](C)[C@H](NC(=O)[C@H](CCCN)NC(=O)[C@H](CC(=O)O)NC(=O)[C@H](CC(C)C)NC(=O)[C@](C)(CC(C)C)NC(=O)[C@@H](NC(=O)C(C)(C)NC(=O)[C@H](Cc1ccc(O)cc1)NC(=O)[C@H](CC(=O)O)NC(=O)[C@H](CO)NC(=O)[C@@H](NC(=O)[C@](C)(Cc1ccccc1F)NC(=O)[C@@H](NC(=O)CNC(=O)[C@H](CCC(=O)O)NC(=O)C(C)(C)NC(=O)[C@@H](N)Cc1ccc(O)cc1)[C@@H](C)O)[C@@H](C)O)[C@@H](C)CC)C(=O)N[C@@H](C)C(=O)N[C@@H](CCC(N)=O)C(=O)NC(C)(C)C(=O)N[C@@H](CCCCNC(=O)COCCOCCNC(=O)COCCOCCNC(=O)CC[C@H](NC(=O)CCCCCCCCCCCCC(=O)O)C(=O)O)C(=O)N[C@@H](Cc1ccccc1)C(=O)N[C@H](C(=O)N[C@H](CCC(=O)O)C(=O)N[C@@](C)(Cc1ccc(O)cc1)C(=O)N[C@@H](CC(C)C)C(=O)N[C@H](C(=O)N[C@@H](CCCCNC(=O)COCCOCCNC(=O)COCCOCCNC(=O)CC[C@H](NC(=O)CCCCCCCCCCCCC(=O)O)C(=O)O)C(=O)NCC(=O)NCC(=O)N1CCC[C@H]1C(=O)N[C@@H](CO)C(=O)N[C@@H](CO)C(=O)NCC(=O)N[C@@H](C)C(=O)N1CCC[C@H]1C(=O)N1CCC[C@H]1C(=O)N1CCC[C@H]1C(=O)N[C@@H](CO)C(N)=O)[C@@H](C)CC)[C@@H](C)CC [Example 234] (H-Y[Aib]EGT[αMePhe(2-F)]TSDY[Aib]I[αMeL]LD[Orn]IAQ[Aib]K([AEEA-AEEA-γGlu-C14 diacid])FI[dE][αMeY]LIK([AEEA-AEEA-γGlu-C14 diacid])GGPSSGAPPPS-NH2; N-terminus assumed)
Emax (hGIPR; [1]): 84.4%
EC50 (hGIPR; [2]): 0.0182 nM
EC50 (hGCGR; [3]): > 9950 nM
EC50 (hGCGR; [4]): > 9950 nM
Emax (hGLP-1R; [6]): 112%
EC50 (hGLP-1R; [7]): 0.319 nM

CC[C@H](C)[C@H](NC(=O)[C@H](CCCN)NC(=O)[C@H](CC(=O)O)NC(=O)[C@H](CC(C)C)NC(=O)[C@](C)(CC(C)C)NC(=O)[C@@H](NC(=O)C(C)(C)NC(=O)[C@H](Cc1ccc(O)cc1)NC(=O)[C@H](CC(=O)O)NC(=O)[C@H](CO)NC(=O)[C@@H](NC(=O)[C@](C)(Cc1ccccc1F)NC(=O)[C@@H](NC(=O)CNC(=O)[C@H](CCC(=O)O)NC(=O)C(C)(C)NC(=O)[C@@H](N)Cc1ccc(O)cc1)[C@@H](C)O)[C@@H](C)O)[C@@H](C)CC)C(=O)N[C@@H](C)C(=O)N[C@@H](CCC(N)=O)C(=O)NC(C)(C)C(=O)N[C@@H](CCCCNC(=O)COCCOCCNC(=O)COCCOCCNC(=O)CC[C@H](NC(=O)CCCCCCCCCCCCC(=O)O)C(=O)O)C(=O)N[C@@H](Cc1ccccc1)C(=O)N[C@H](C(=O)N[C@H](CCC(=O)O)C(=O)N[C@@](C)(Cc1ccc(O)cc1)C(=O)N[C@@H](CC(C)C)C(=O)N[C@H](C(=O)N[C@@H](CCC(=O)O)C(=O)NCC(=O)NCC(=O)N1CCC[C@H]1C(=O)N[C@@H](CO)C(=O)N[C@@H](CO)C(=O)NCC(=O)N[C@@H](C)C(=O)N1CCC[C@H]1C(=O)N1CCC[C@H]1C(=O)N1CCC[C@H]1C(=O)N[C@@H](CO)C(=O)N[C@@H](CCCCNC(=O)COCCOCCNC(=O)COCCOCCNC(=O)CC[C@H](NC(=O)CCCCCCCCCCCCC(=O)O)C(=O)O)C(N)=O)[C@@H](C)CC)[C@@H](C)CC [Example 235] (H-Y[Aib]EGT[αMePhe(2-F)]TSDY[Aib]I[αMeL]LD[Orn]IAQ[Aib]K([AEEA-AEEA-γGlu-C14 diacid])FI[dE][αMeY]LIEGGPSSGAPPPSK([AEEA-AEEA-γGlu-C14 diacid])-NH2; N-terminus assumed)
Emax (hGIPR; [1]): 92.2%
EC50 (hGIPR; [2]): 0.0168 nM
EC50 (hGCGR; [3]): > 9950 nM
EC50 (hGCGR; [4]): > 9950 nM
Emax (hGLP-1R; [5]): 152%
EC50 (hGLP-1R; [7]): 0.295 nM

CC[C@H](C)[C@H](NC(=O)[C@H](CC(C)C)NC(=O)[C@](C)(Cc1ccc(O)cc1)NC(=O)[C@@H](CCC(=O)O)NC(=O)[C@@H](NC(=O)[C@H](Cc1ccccc1)NC(=O)[C@H](CCCCNC(=O)COCCOCCNC(=O)COCCOCCNC(=O)CC[C@H](NC(=O)CCCCCCCCCOc1ccc(C(=O)O)cc1)C(=O)O)NC(=O)C(C)(C)NC(=O)[C@H](CCC(N)=O)NC(=O)[C@H](C)NC(=O)[C@H](CCCCNC(=O)COCCOCCNC(=O)COCCOCCNC(=O)CC[C@H](NC(=O)CCCCCCCCCOc1ccc(C(=O)O)cc1)C(=O)O)NC(=O)[C@H](CCCN)NC(=O)[C@H](CC(=O)O)NC(=O)[C@H](CC(C)C)NC(=O)[C@](C)(CC(C)C)NC(=O)[C@@H](NC(=O)C(C)(C)NC(=O)[C@H](Cc1ccc(O)cc1)NC(=O)[C@H](CC(=O)O)NC(=O)[C@H](CO)NC(=O)[C@@H](NC(=O)[C@](C)(Cc1ccccc1F)NC(=O)[C@@H](NC(=O)CNC(=O)[C@H](CCC(=O)O)NC(=O)C(C)(C)NC(=O)[C@@H](N)Cc1ccc(O)cc1)[C@@H](C)O)[C@@H](C)O)[C@@H](C)CC)[C@@H](C)CC)C(=O)N[C@@H](CCC(=O)O)C(=O)NCC(=O)NCC(=O)N1CCC[C@H]1C(=O)N[C@@H](CO)C(=O)N[C@@H](CO)C(=O)NCC(=O)N[C@@H](C)C(=O)N1CCC[C@H]1C(=O)N1CCC[C@H]1C(=O)N1CCC[C@H]1C(=O)N[C@@H](CO)C(N)=O [Example 236]
Emax (hGIPR; HEK293, read-out: hGIPR Emax, % ± SEM, 0.1% bovine casein and 1.0% human serum albumin, 37° C., percent of maximal response to GIP(1-42)NH2): 80.5%
EC50 (hGIPR; hGIPR EC50, nM (SEM, n), cAMP, incubated at 37° C., 0.1% bovine casein (no human serum albumin)): 0.0154 nM
EC50 (hGCGR; hGCGR EC50, nM (SEM, n), 0.1% bovine casein and 1.0% human serum albumin, 37° C.): > 9950 nM
EC50 (hGCGR; hGCGR EC50, nM (SEM, n), cAMP, incubated at 37° C., 0.1% bovine casein (no human serum albumin)): > 9950 nM
Emax (hGLP-1R; HEK293, read-out: hGLP-1R Emax, % ± SEM, 0.1% bovine casein and 1.0% human serum albumin, 37° C., percent of maximal response to GLP-1(7-36)NH2): 125%
Emax (hGLP-1R; HEK293, read-out: hGLP-1R Emax, % ± SEM, percent of maximal response to GLP-1(7-36)NH2, 37° C., 0.1% bovine casein, arithmetic mean): 96.5%
EC50 (hGLP-1R; hGLP-1R EC50, nM (SEM, n), 0.1% bovine casein and 1.0% human serum albumin, 37° C.): 32.6 nM
EC50 (hGLP-1R; hGLP-1R EC50, nM (SEM, n), cAMP, incubated at 37° C., 0.1% bovine casein (no human serum albumin)): 0.336 nM
